Series [1] deals with T1, Tyrosine-protein kinase JAK2 (Homo sapiens, UniProt O60674). Nature of the series: Inhibition of JAK2 (unknown origin) using srctide as substrate preincubated with compound for 1 hr followed by substrate addition and measured after 15 mins in presence of ATP by LC-MS analysis.
For series [2], the target named is T1, Tyrosine-protein kinase JAK2. Nature of the series: Binding affinity to his-tagged JAK2 (826 to 1132 residues) (unknown origin) assessed as dissociation constant incubated for 30 mins by MST analysis.
Series [3] is described as follows: Stability of the compound in fetal bovine serum measured after 30 h by RP-HPLC analysis. The note with it: cattle.

Numbered stars: 1 amine (or outer) side, 2 acyl side, 3 side chain; on linkers, the order of the positions; unused ones are H or OH. Bridge positions count the residues as written; N and C are the ends. Square brackets hold non-standard residues; d marks the D form. Peptide text beside a SMILES is read from it. * marks the point of attachment. 1Nal = N[C@@H](Cc1cccc2ccccc12)C(=O)O; TBMB = c1c(C[*:1])cc(C[*:3])cc1C[*:2]; Acm = CC(=O)NC*

T1 sequence (O60674 whole entry, the tested form may be a part): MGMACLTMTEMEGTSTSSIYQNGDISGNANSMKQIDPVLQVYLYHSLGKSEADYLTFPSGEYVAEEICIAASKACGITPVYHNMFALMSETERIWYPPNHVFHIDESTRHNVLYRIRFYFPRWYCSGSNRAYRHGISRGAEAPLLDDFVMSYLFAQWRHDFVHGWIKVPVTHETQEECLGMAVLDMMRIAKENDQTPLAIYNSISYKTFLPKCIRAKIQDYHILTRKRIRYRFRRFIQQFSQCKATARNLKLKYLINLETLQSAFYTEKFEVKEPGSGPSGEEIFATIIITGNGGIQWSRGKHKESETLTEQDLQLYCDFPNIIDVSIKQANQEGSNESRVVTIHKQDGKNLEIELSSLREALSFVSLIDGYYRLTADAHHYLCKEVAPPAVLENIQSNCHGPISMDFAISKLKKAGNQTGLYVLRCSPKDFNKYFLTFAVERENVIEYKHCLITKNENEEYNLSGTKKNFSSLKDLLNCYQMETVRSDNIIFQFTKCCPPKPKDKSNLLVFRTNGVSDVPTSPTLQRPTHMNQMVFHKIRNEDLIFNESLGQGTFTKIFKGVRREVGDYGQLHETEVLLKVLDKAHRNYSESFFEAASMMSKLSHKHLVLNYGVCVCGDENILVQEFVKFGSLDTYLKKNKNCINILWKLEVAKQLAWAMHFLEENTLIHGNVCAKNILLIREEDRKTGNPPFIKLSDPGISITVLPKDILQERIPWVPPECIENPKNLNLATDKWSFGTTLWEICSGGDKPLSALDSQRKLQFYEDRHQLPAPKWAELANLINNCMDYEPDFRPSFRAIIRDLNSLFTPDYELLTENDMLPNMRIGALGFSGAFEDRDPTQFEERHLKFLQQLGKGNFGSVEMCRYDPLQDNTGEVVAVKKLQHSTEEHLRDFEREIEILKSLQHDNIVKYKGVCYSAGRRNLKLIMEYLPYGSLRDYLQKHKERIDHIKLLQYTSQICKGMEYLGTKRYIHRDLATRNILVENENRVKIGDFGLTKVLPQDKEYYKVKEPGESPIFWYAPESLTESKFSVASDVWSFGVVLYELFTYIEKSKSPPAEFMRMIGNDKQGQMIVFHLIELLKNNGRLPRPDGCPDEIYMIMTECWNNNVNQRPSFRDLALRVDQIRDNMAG

Consider `CC(=O)NCSC[C@@H]1NC(=O)[C@H]([C@@H](C)O)NC(=O)[C@H](NC(C)=O)CSCc2cccc(c2)CSC[C@@H](C(=O)N[C@@H](Cc2cnc[nH]2)C(N)=O)NC(=O)[C@H](CCCNC(=N)N)NC(=O)[C@H](Cc2cccc3ccccc23)NC(=O)[C@H]([C@@H](C)O)NC(=O)[C@H](CCC(N)=O)NC(=O)[C@H](CCCNC(=N)N)NC1=O`, for which the IC50 in series [1] is 2.2 µM. Also, the Kd in series [2] came out at 6.8 µM.

As for `CC(=O)NCSC[C@@H]1NC(=O)[C@H]([C@@H](C)O)NC(=O)[C@@H](NC(C)=O)CSCc2cc3cc(c2)CSC[C@H](NC(=O)[C@H](CCCNC(=N)N)NC1=O)C(=O)N[C@@H]([C@@H](C)O)C(=O)N[C@@H](Cc1cccc2ccccc12)C(=O)N[C@@H](CCCNC(=N)N)C(=O)N[C@H](C(=O)N[C@@H](Cc1cnc[nH]1)C(N)=O)CSC3` (Ac-CTC(Acm)RCT[1Nal]RCH-NH2; linker 1-5-9 via TBMB), in series [1], the IC50 is 100 µM. Further, the Kd in series [2] was 130 µM.

For `CC(=O)NCSC[C@@H]1NC(=O)[C@H]([C@@H](C)O)NC(=O)[C@@H](NC(C)=O)CC(=O)NCCCC[C@@H](C(=O)N[C@@H](Cc2cnc[nH]2)C(N)=O)NC(=O)[C@H](CCCNC(=N)N)NC(=O)[C@H](Cc2cccc3ccccc23)NC(=O)[C@H]([C@@H](C)O)NC(=O)[C@H](CCC(N)=O)NC(=O)[C@H](CCCNC(=N)N)NC1=O` (Ac-DTC(Acm)RQT[1Nal]RKH-NH2; lactam 1-9), the Stability result in series [3] is listed as “Stable”.

For `COc1cc(/C=C/C(=O)CC(=O)/C=C/c2ccc(O)c(OC)c2)ccc1O` [CURCUMIN], the Kd in series [2] is approximately 90 µM.

For orientation: IC50 means the concentration needed to halve the response being measured. The Kd is the constant that tells how readily two partners part at equilibrium.

Values taken from ChEMBL document CHEMBL6096668, “Design and functional studies of xylene-based cyclic mimetics of SOCS1 protein” (Eur J Med Chem, 2025).
